Laboratory results from article PMC10910009, “Comparing ATPase activity of ATP-binding cassette subfamily C member 4, lamprey CFTR, and human CFTR using an antimony-phosphomolybdate assay” (Frontiers in Pharmacology, 2024).

T1: Lp-CFTR (Petromyzon marinus, UniProt A0A5Q0TXR8)
T1 construct: lamprey CFTR in pFastBac vector with 6xHis tag; baculovirus/Sf9 crude plasma membranes, not purified; PKA-phosphorylated
T1 sequence (A0A5Q0TXR8 1-1466): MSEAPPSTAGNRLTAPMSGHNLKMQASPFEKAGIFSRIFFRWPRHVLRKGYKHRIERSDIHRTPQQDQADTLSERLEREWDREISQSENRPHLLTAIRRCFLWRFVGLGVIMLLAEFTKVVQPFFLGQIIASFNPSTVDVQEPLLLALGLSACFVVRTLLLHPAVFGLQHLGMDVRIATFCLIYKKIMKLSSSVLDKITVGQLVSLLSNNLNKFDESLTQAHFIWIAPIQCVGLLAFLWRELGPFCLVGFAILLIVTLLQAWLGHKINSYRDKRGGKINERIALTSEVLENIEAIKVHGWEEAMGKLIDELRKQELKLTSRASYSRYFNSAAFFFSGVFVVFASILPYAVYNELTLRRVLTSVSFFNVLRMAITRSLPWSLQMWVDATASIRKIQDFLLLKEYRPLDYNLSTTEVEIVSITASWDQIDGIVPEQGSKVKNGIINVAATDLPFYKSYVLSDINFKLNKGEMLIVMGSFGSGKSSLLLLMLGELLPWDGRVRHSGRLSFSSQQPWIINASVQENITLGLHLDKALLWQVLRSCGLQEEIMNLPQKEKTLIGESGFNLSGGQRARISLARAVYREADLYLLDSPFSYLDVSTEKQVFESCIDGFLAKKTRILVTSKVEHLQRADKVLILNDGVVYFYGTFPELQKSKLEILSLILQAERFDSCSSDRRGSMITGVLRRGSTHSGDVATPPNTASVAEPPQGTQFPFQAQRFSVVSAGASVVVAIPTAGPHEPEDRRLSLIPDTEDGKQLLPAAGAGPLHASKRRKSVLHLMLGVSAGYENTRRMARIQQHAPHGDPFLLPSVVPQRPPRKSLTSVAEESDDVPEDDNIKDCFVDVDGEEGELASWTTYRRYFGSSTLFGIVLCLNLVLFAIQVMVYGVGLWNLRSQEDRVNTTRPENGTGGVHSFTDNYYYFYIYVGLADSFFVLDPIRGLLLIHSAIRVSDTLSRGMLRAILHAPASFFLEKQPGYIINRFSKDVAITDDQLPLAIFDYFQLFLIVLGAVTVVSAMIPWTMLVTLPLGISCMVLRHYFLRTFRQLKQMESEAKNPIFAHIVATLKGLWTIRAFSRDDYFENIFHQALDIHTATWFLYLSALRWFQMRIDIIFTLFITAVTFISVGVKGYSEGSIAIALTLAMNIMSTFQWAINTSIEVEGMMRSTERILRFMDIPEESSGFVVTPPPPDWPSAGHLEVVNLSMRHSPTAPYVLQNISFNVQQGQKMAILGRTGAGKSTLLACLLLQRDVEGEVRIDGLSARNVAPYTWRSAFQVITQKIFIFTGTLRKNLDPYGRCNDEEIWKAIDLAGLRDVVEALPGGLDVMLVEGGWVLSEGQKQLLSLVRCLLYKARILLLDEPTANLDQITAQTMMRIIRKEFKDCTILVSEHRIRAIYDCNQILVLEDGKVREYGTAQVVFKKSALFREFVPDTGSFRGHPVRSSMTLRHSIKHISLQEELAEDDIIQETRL

B1: hABCC4 (Homo sapiens) (protein)
chain: MLPVYQEVKPNPLQDANLCSRVFFWWLNPLFKIGHKRRLEEDDMYSVLPEDRSQHLGEELQGFWDKEVLRAENDAQKPSLTRAIIKCYWKSYLVLGIFTLIEESAKVIQPIFLGKIINYFENYDPMDSVALNTAYAYATVLTFCTLILAILHHLYFYHVQCAGMRLRVAMCHMIYRKALRLSNMAMGKTTTGQIVNLLSNDVNKFDQVTVFLHFLWAGPLQAIAVTALLWMEIGISCLAGMAVLIILLPLQSCFGKLFSSLRSKTATFTDARIRTMNEVITGIRIIKMYAWEKSFSNLITNLRKKEISKILRSSCLRGMNLASFFSASKIIVFVTFTTYVLLGSVITASRVFVAVTLYGAVRLTVTLFFPSAIERVSEAIVSIRRIQTFLLLDEISQRNRQLPSDGKKMVHVQDFTAFWDKASETPTLQGLSFTVRPGELLAVVGPVGAGKSSLLSAVLGELAPSHGLVSVHGRIAYVSQQPWVFSGTLRSNILFGKKYEKERYEKVIKACALKKDLQLLEDGDLTVIGDRGTTLSGGQKARVNLARAVYQDADIYLLDDPLSAVDAEVSRHLFELCICQILHEKITILVTHQLQYLKAASQILILKDGKMVQKGTYTEFLKSGIDFGSLLKKDNEESEQPPVPGTPTLRNRTFSESSVWSQQSSRPSLKDGALESQDTENVPVTLSEENRSEGKVGFQAYKNYFRAGAHWIVFIFLILLNTAAQVAYVLQDWWLSYWANKQSMLNVTVNGGGNVTEKLDLNWYLGIYSGLTVATVLFGIARSLLVFYVLVNSSQTLHNKMFESILKAPVLFFDRNPIGRILNRFSKDIGHLDDLLPLTFLDFIQTLLQVVGVVSVAVAVIPWIAIPLVPLGIIFIFLRRYFLETSRDVKRLESTTRSPVFSHLSSSLQGLWTIRAYKAEERCQELFDAHQDLHSEAWFLFLTTSRWFAVRLDAICAMFVIIVAFGSLILAKTLDAGQVGLALSYALTLMGMFQWCVRQSAEVENMMISVERVIEYTDLEKEAPWEYQKRPPPAWPHEGVIIFDNVNFMYSPGGPLVLKHLTALIKSQEKVGIVGRTGAGKSSLISALFRLSEPEGKIWIDKILTTEIGLHDLRKKMSIIPQEPVLFTGTMRKNLDPFNEHTDEELWNALQEVQLKETIEDLPGKMDTELAESGSNFSVGQRQLVCLARAILRKNQILIIDEATANVDPRTDELIQKKIREKFAHCTVLTIAHRLNTIIDSDKIMVLDSGRLKEYDEPYVLLQNKESLFYKMVQQLGKAEAAALTETAKQVYFKRNYPHIGHTDHMVTNTSNGQPSTLTIFETAL
notes: human ABCC4 in pFastBac vector with 6xHis tag; baculovirus/Sf9 crude plasma membranes, not purified

Legend:
hCFTR = target: T2, hCFTR (Homo sapiens, UniProt P13569); conditions: Sf9 crude membranes, control membranes subtracted; 1 mM Na2ATP, 5 mM MgCl2, PKA, pH 7.4, 30 °C, 1 h
T2 construct: gene CFTR
T2 sequence (P13569 whole entry): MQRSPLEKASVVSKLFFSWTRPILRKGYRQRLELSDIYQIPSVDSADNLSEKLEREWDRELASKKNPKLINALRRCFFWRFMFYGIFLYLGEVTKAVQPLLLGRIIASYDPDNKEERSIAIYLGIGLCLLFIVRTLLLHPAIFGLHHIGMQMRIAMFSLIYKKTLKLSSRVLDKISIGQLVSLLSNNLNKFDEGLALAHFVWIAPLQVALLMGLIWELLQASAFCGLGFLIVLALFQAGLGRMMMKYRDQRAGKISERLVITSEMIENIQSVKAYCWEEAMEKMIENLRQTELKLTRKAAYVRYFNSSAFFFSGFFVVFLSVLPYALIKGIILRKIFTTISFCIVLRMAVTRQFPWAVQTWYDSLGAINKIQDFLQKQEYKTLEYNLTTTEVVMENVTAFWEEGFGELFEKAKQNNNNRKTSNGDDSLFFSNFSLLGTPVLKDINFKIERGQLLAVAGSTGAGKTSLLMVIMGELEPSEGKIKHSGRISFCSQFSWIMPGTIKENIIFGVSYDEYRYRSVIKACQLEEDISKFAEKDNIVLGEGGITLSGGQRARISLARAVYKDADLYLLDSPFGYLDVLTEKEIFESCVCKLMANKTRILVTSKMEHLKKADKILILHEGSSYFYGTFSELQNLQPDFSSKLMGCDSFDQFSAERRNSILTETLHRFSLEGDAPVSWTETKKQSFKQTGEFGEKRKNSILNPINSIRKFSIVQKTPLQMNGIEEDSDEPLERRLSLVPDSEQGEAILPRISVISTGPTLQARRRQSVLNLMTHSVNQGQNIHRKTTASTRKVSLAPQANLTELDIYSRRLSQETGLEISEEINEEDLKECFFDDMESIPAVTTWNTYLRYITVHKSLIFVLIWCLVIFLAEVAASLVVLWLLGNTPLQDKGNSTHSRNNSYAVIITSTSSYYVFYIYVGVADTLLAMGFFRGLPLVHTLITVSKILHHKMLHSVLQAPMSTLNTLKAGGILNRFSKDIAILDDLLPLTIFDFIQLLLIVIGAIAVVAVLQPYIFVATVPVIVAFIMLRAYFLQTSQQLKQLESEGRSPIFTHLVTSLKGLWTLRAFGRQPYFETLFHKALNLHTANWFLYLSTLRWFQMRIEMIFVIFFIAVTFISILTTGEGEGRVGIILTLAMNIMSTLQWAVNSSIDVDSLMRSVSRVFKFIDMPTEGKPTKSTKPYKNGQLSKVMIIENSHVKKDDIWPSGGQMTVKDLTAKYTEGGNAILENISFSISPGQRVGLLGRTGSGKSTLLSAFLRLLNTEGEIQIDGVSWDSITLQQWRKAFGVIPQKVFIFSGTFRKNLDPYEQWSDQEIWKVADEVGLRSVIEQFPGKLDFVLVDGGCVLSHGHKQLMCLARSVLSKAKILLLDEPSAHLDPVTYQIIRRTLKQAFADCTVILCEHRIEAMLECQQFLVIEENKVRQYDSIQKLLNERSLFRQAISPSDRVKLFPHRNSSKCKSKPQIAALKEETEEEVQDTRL

Lp-CFTR = target: T1, Lp-CFTR; test: antimony-phosphomolybdate Pi release (ATPase); assay type: biochemical; conditions: Sf9 crude membranes, control membranes subtracted; 1 mM Na2ATP, 5 mM MgCl2, PKA, pH 7.4, 30 °C, 1 h
[1] = substrate: Nc1ncnc2c1ncn2[C@@H]1O[C@H](COP(=O)(O)OP(=O)(O)OP(=O)(O)O)[C@@H](O)[C@H]1O; test: antimony-phosphomolybdate Pi release (ATPase), Michaelis-Menten fit; assay type: biochemical, Homo sapiens; conditions: printed as Kd but from Michaelis-Menten fit of ATPase activity, Sf9 crude membranes, control membranes subtracted, 5 mM MgCl2, pH 7.4, 37 °C, 20 min, no PKA, no transport substrate

Row | Molecule | antimony-phosphomolybdate Pi release (ATPase) (hCFTR) | antimony-phosphomolybdate Pi release (ATPase) (Lp-CFTR) | Km [1] [µM]
1 | Nc1ncnc2c1ncn2[C@@H]1O[C@H](COP(=O)(O)OP(=O)(O)OP(=O)(O)O)[C@@H](O)[C@H]1O [ATP] | hCFTR exhibited higher ATPase activity in high PKA compared to low PKA conditions | Lp-CFTR exhibited higher ATPase activity in high PKA compared to low PKA conditions | –
2 | B1 | – | – | 550 ± 280
